According to ChEMBL document CHEMBL1201862, “PubChem BioAssay data set” (2004):
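Where inhibition never reached the appropriate level, the endpoint shown equals the highest concentration tested. Otherwise, values were interpolated linearly from a five-concentration, 48-hour dose response in 96-well plates. Abbreviation: GI50, concentration required for 50% inhibition of growth.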 Active and inactive are the calls of the source. No stated cut-off is given here; in the data, active = GI50 up to about 1.1 µM and inactive = higher.

Legend:
Experiment in all cases: DTP human tumour cell line panel, 48 h
T47D = tested on: T47D
SF-268 = tested on: SF-268
MDA-MB-231 = tested on: MDA-MB-231
TK-10 = tested on: TK-10
MDA-MB-435 = tested on: MDA-MB-435
HOP-62 = tested on: HOP-62
OVCAR-4 = tested on: OVCAR-4
A549 = tested on: A549
KM12 = tested on: KM12
SW-620 = tested on: SW-620
HOP-92 = tested on: HOP-92
COLO 205 = tested on: COLO 205
SK-MEL-5 = tested on: SK-MEL-5
HT-29 = tested on: HT-29
ACHN = tested on: ACHN
786-0 = tested on: 786-0
MDA-N = tested on: MDA-N
PC-3 = tested on: PC-3
Hs-578T = tested on: Hs-578T

Measured: GI50

O=C1C=Cc2c(I)sc(I)c21
inactive: T47D 18.1 µM | SF-268 12.4 µM | MDA-MB-231 29.9 µM | TK-10 30.2 µM | MDA-MB-435 19.4 µM | HOP-62 38.6 µM | OVCAR-4 20 µM | A549 26.2 µM | KM12 20 µM | SW-620 13.4 µM | HOP-92 17 µM | COLO 205 19 µM | SK-MEL-5 74.5 µM | HT-29 23.9 µM | ACHN 36.6 µM | 786-0 10.3 µM | MDA-N 24.9 µM

NC(=S)N/N=C1\CCCCc2ccccc21
inactive: PC-3 > 10 µM | T47D 4.81 µM | SF-268 > 10 µM | TK-10 > 10 µM | MDA-MB-435 > 10 µM | HOP-62 > 10 µM | OVCAR-4 > 10 µM | A549 > 10 µM | KM12 > 10 µM | SW-620 > 10 µM | COLO 205 > 10 µM | HT-29 > 10 µM | ACHN > 10 µM | 786-0 > 10 µM | MDA-N > 10 µM

NNC(=O)c1nn[nH]c1C(=O)NN
inactive: PC-3 > 100 µM | SF-268 > 100 µM | MDA-MB-231 > 100 µM | TK-10 > 100 µM | MDA-MB-435 > 100 µM | HOP-62 > 100 µM | OVCAR-4 > 10 µM | A549 > 100 µM | KM12 > 100 µM | COLO 205 > 100 µM | SK-MEL-5 > 100 µM | HT-29 13.5 µM | 786-0 15.5 µM | MDA-N > 100 µM

COc1ccc(/C(=N/O)c2ccccc2C2=Nc3ccccc3C(NCc3ccccc3)O2)cc1C (centres undefined)
inactive: PC-3 17.3 µM | SF-268 42.3 µM | MDA-MB-231 32.7 µM | MDA-MB-435 27.2 µM | Hs-578T 40.8 µM | HOP-62 31.1 µM | A549 49 µM | KM12 46.2 µM | SW-620 21.8 µM | HOP-92 20.5 µM | COLO 205 17.2 µM | SK-MEL-5 17.5 µM | HT-29 25.1 µM | ACHN 38 µM | 786-0 44.3 µM | MDA-N 34.7 µM

Cc1ccn2c(=O)cc(CN3CCOCC3)nc2c1
inactive: PC-3 > 100 µM | SF-268 > 100 µM | MDA-MB-231 > 100 µM | TK-10 > 100 µM | MDA-MB-435 > 100 µM | Hs-578T > 100 µM | HOP-62 > 100 µM | OVCAR-4 > 100 µM | A549 > 100 µM | KM12 > 100 µM | SW-620 > 100 µM | HOP-92 > 100 µM | COLO 205 > 100 µM | HT-29 > 100 µM | ACHN > 100 µM | 786-0 > 100 µM | MDA-N > 100 µM

CCOC(=O)CC1C(C(=O)OCC)=Cn2c([nH]c3cccc4cccc2c43)=C1C(=O)OCC (centres undefined)
inactive: PC-3 91 µM | T47D 43.8 µM | TK-10 > 100 µM | MDA-MB-435 54.3 µM | HOP-62 > 100 µM | OVCAR-4 > 100 µM | A549 > 100 µM | KM12 > 100 µM | SW-620 > 100 µM | HOP-92 > 100 µM | COLO 205 > 100 µM | SK-MEL-5 33.7 µM | HT-29 > 100 µM | ACHN > 100 µM | 786-0 > 100 µM | MDA-N > 100 µM

COc1ccc2c(-c3ccc(OCCN(C)C)cc3)c(Oc3ccccc3)c(=O)oc2c1
inactive: PC-3 6.12 µM | T47D 7.85 µM | SF-268 6.18 µM | MDA-MB-231 3.15 µM | TK-10 9.79 µM | MDA-MB-435 2.48 µM | Hs-578T 6.18 µM | HOP-62 13 µM | OVCAR-4 16.9 µM | A549 3.37 µM | KM12 4.78 µM | SW-620 4.2 µM | HOP-92 9.53 µM | COLO 205 3.01 µM | SK-MEL-5 2.37 µM | HT-29 7.59 µM | ACHN 10.2 µM | 786-0 2.87 µM

COc1c(N2CCCCC2)c2c(=O)c3ccccc3oc2c2cc(C)oc12
inactive: PC-3 12.7 µM | SF-268 17.9 µM | MDA-MB-231 5.26 µM | TK-10 37.6 µM | MDA-MB-435 28.6 µM | Hs-578T 18.4 µM | HOP-62 9.91 µM | OVCAR-4 13.9 µM | A549 18.2 µM | KM12 16.5 µM | SW-620 8.81 µM | HOP-92 7.45 µM | COLO 205 4.09 µM | SK-MEL-5 16.5 µM | HT-29 3.87 µM | ACHN 5.6 µM | 786-0 6.35 µM | MDA-N 23.7 µM

COc1ccc(C2(CC(C)C)CCN(S(=O)(=O)c3ccc(C)cc3)C2)cc1OC (centres undefined)
inactive: PC-3 28.5 µM | T47D 14.4 µM | SF-268 21.9 µM | MDA-MB-231 > 100 µM | TK-10 63.5 µM | MDA-MB-435 21.8 µM | HOP-62 45.5 µM | OVCAR-4 27.3 µM | A549 27.2 µM | KM12 23.3 µM | SW-620 99.5 µM | COLO 205 25.8 µM | SK-MEL-5 13.6 µM | HT-29 35.6 µM | ACHN 36.6 µM | 786-0 27.8 µM | MDA-N 70.8 µM

O=C1C(Sc2ccc3ccccc3c2)=C(Sc2ccc3ccccc3c2)C(=O)c2ccccc21
inactive: PC-3 14.4 µM | T47D 1.76 µM | SF-268 11 µM | MDA-MB-231 4.59 µM | MDA-MB-435 17.7 µM | Hs-578T 8.57 µM | HOP-62 13.1 µM | OVCAR-4 3.47 µM | A549 4.72 µM | SW-620 4.8 µM | HOP-92 6.64 µM | COLO 205 3.95 µM | SK-MEL-5 2.81 µM | HT-29 15.6 µM | ACHN 4.55 µM | 786-0 12.7 µM

O=c1sc2c(s1)SSSSS2
inactive: PC-3 > 50 µM | T47D > 50 µM | SF-268 28.6 µM | MDA-MB-231 > 50 µM | TK-10 > 50 µM | MDA-MB-435 > 50 µM | HOP-62 > 50 µM | OVCAR-4 > 50 µM | A549 > 50 µM | KM12 > 50 µM | SW-620 > 50 µM | HOP-92 > 50 µM | COLO 205 > 50 µM | SK-MEL-5 > 50 µM | HT-29 21.1 µM | ACHN > 50 µM | 786-0 > 50 µM | MDA-N > 50 µM

O=c1cc(-c2ccccc2)oc2ccc(-c3ccc4oc(-c5ccccc5)cc(=O)c4c3)cc12
inactive: PC-3 > 10 µM | TK-10 29.4 µM | MDA-MB-435 17.8 µM | Hs-578T 12.2 µM | HOP-62 19.1 µM | OVCAR-4 19.3 µM | A549 16.7 µM | SW-620 30.5 µM | HOP-92 14.4 µM | COLO 205 17.1 µM | SK-MEL-5 12.9 µM | HT-29 30.9 µM | ACHN 20.5 µM | 786-0 28.4 µM | MDA-N 15.4 µM

CSC(SC)=C(C#N)C(=O)Nc1cccc(Cl)c1
inactive: PC-3 50.4 µM | SF-268 > 100 µM | MDA-MB-231 > 100 µM | TK-10 59.3 µM | MDA-MB-435 > 100 µM | Hs-578T > 100 µM | HOP-62 67.9 µM | OVCAR-4 27.9 µM | A549 65.9 µM | KM12 > 100 µM | SW-620 39.8 µM | HOP-92 21 µM | COLO 205 > 100 µM | SK-MEL-5 10.3 µM | HT-29 46.7 µM | ACHN 75.2 µM | 786-0 33.8 µM | MDA-N 58.5 µM

CC(=O)OCCOCn1c2c(c(=S)[nH]c1=O)CCC2
inactive: PC-3 > 100 µM | SF-268 > 100 µM | MDA-MB-231 > 100 µM | TK-10 > 100 µM | MDA-MB-435 > 100 µM | Hs-578T > 100 µM | HOP-62 > 100 µM | OVCAR-4 > 100 µM | A549 > 100 µM | KM12 > 100 µM | SW-620 > 100 µM | HOP-92 > 100 µM | COLO 205 > 100 µM | SK-MEL-5 > 100 µM | HT-29 > 100 µM | ACHN > 100 µM | 786-0 93.8 µM | MDA-N > 100 µM

COc1cc(C2c3cc4c(cc3[C@@H](Nc3ccccc3)C3CO[C@@H](OC)[C@H]23)OCO4)cc(OC)c1O (some centres undefined)
inactive: PC-3 8.81 µM | T47D 8.36 µM | SF-268 7.29 µM | TK-10 9.46 µM | MDA-MB-435 9.79 µM | Hs-578T 3.21 µM | HOP-62 7.11 µM | OVCAR-4 > 25 µM | A549 2.13 µM | KM12 5.83 µM | SW-620 6.52 µM | COLO 205 12.3 µM | SK-MEL-5 8.55 µM | HT-29 4.82 µM | ACHN 3.18 µM | 786-0 5.14 µM

CN(C(=O)/C=C/c1ccccc1)C1C2CN3CCC(O2)C13 (centres undefined)
inactive: SF-268 > 100 µM | TK-10 > 100 µM | HOP-62 > 100 µM | OVCAR-4 > 100 µM | A549 > 100 µM | KM12 > 100 µM | SW-620 > 100 µM | COLO 205 > 100 µM | SK-MEL-5 > 100 µM | HT-29 > 100 µM | ACHN > 100 µM | 786-0 > 100 µM

Cc1oc(N)c(S(=O)(=O)/C(C#N)=C/c2ccccc2[N+](=O)[O-])c1C
inactive: PC-3 23.1 µM | T47D 27 µM | SF-268 31 µM | MDA-MB-231 32.9 µM | TK-10 50.2 µM | MDA-MB-435 32.7 µM | HOP-62 31.1 µM | OVCAR-4 38.5 µM | A549 25.2 µM | KM12 25.2 µM | SW-620 26.6 µM | HOP-92 34.7 µM | COLO 205 21.7 µM | SK-MEL-5 19.2 µM | HT-29 19.2 µM | ACHN 25.4 µM | 786-0 30.5 µM | MDA-N 20.7 µM
